Publication PMC7160673, “A Degenerate Peptide Library Approach to Reveal Sequence Determinants of Methyllysine-Driven Protein Interactions” (Frontiers in Cell and Developmental Biology, 2020)
Where no end group is shown, it is not given here. Peg = not defined here

Columns and labels:
Format in all cases: binding
[1] = test system: CST 9733 (anti-H3K27me3); assay: Histone peptide microarray, CST 9733; conditions: histone peptide array signal normalized to the highest peptide average per subarray, hits; CST 9733 LOT:14 dilution 1:5,000
Protocol: (§1) Peptide microarrays were fabricated using an Aushon 2470 microarrayer and used as described ([Cornett et al., 2017]) with the following modifications. Protein and antibody hybridization steps were performed in buffer containing 25 mM HEPES pH 7.5, 100 mM NaCl, 0.5% BSA (w/v), and 0.1% NP-40. Slides were washed 3 × 5 min in PBS supplemented with 0.1% Tween-20 between each hybridization step. Antibodies used were primary anti-GST (Sigma #7781, 1:2,000 dilution) and an AlexaFluor 647-labeled secondary antibody (Life Technologies A-21245, 1:5,000 dilution). […] Full lists of peptides queried by array analysis are in Supplementary Table S2.

[2] = test system: 53BP1 TTD; assay: Histone peptide microarray, 53BP1 TTD; conditions: 53BP1 TTD hits, average signal per peptide
Protocol: as §1

[3] = test system: Active Motif #39161, anti-H3K9me3; assay: Histone peptide microarray, Active Motif 39161; conditions: Active Motif 39161 (anti-H3K9me3) hits
Protocol: as §1

[4] = test system: Millipore #07-449, anti-H3K27me3; assay: Histone peptide microarray, Millipore 07-449; conditions: Millipore 07-449 (anti-H3K27me3) hits, average signal per peptide
Protocol: as §1

[5] = test system: Abcam #ab8895, anti-H3K4me1; assay: Histone peptide microarray, Abcam ab8895; conditions: Abcam ab8895 (anti-H3K4me1) hits, average signal per peptide
Protocol: as §1

| Substance | Avg Signal [1] | Avg Signal [2] | Avg Signal [3] | Avg Signal [4] | Avg Signal [5] |
| --- | --- | --- | --- | --- | --- |
| Ac-SAAKASQSRSAKAGLT-Peg-Biotin [yH2A(10-25)] | 6.218e-5 | – | – | – | – |
| ARpTK(Me3)QTARK(Ac)STGGK(Ac)APRK(Ac)QL-K(Biot)-NH2 [H3.1T3pK4me3K9acK14acK18ac] | – | 0.05883 | 0.05484 | 0.007748 | – |
| Ac-APRKQLATKAARK(Me)SAPSTGG--Peg-Biot [Peptide H3.3K27me1] | – | 0.1127 | – | 0.003394 | 0.01351 |
| ARTKQTARK(Me)pSTGGKAPRKQL-K(Biot)-NH2 [H3.1K9me1S10p] | – | 0.1506 | – | – | 0.1234 |
| ARTKQTARK(Me2)pSTGGKAPRKQL-K(Biot)-NH2 [H3.1K9me2S10p] | – | 0.3509 | – | – | 0.1568 |
| PEPAK(Me)SAPAPKKGSKKAVTKAQKK-Peg-Biot [Peptide H2BK5me1] | – | 0.1012 | 0.004346 | 0.01581 | 0.004522 |
| ARTK(Me3)QTARKST-Peg-Biot [H3.1K4me3 H3.1(1-11)] | 1.495e-5 | – | – | – | – |
| ARTKQTARK(Ac)STGGKAPRK(Ac)QL-K(Biot)-NH2 [H3.1K9acK18ac] | – | 0.0364 | 0.0006444 | 0.006063 | 0.2595 |
| Ac-APRKQLATKAAR(Me2a)KSAPSTGG-Peg-Biot [Peptide H3.3R26me2a] | 0.0004634 | – | 0.01154 | 0.001966 | – |
| ARTK(Ac)QTARK(Ac)STGGKAPRK(Ac)QL-K(Biot)-NH2 [H3.1K4acK9acK18ac] | – | 0.1542 | 0.011 | 0.0004417 | – |
| AR(Me2a)TK(Ac)QTARK(Ac)STGGK(Ac)APRK(Ac)QL-K(Biot)-NH2 [H3.1R2me2aK4acK9acK14acK18ac] | – | 0.1712 | 0.00047 | – | 0.0001948 |
| KSAPSTGGVK(Me)KPHRYRPGT-G-K(Biot)-NH2 [Peptide H3.3K36me1] | 0.0007823 | – | 0.0005946 | 0.009576 | 0.003496 |
| Ac-pSGCitGK(Ac)QGGKARAKAKTR-Peg-Biot [H2AS1pCit3K5ac] | – | 0.04418 | 0.0032 | 0.006425 | 0.004421 |
| Ac-SGRGK(Me)GGK(Ac)GLGK(Ac)GGAK(Ac)RHRKVLR-Peg-Biot [H4K5me1K8acK12acK16ac] | 1.398e-6 | – | 0.0048 | 0.002528 | 0.01497 |
| ARTKQTAR-NleSTGGKAPRKQL-Peg-Biot [Peptide H3.1K9-Nle] | 0.0002703 | – | – | 0.001582 | 0.1441 |
| Ac-SGRGK(Ac)GGK(Ac)GLGK(Ac)GGAK(Ac)RHRKVLR-Peg-Biot [H4K5acK8acK12acK16ac] | – | 0.1158 | – | – | 0.005523 |
| pSGRGK(Ac)QGGK(Ac)ARAK(Ac)AK(Ac)TR-Peg-Biot [H2AS1pK5acK9acK13acK15ac(noN-ac)] | – | 0.06769 | – | 0.001023 | 0.0006853 |
| ARTKQTAR(Me)KSTGGKAPRKQL-Peg-Biot (chain 2 KSTGGKAPRKQL-{Peg-Biot}; not fully specified; reading uncertain) [Peptide H3.1R8me1] | 0.01735 | – | – | – | 0.1046 |
| Ac-GK(Ac)GGAK(Ac)RHRK(Me)VLRDNIQ-Peg-Biot [H4K12acK16acK20me1] | 0.0009983 | – | 0.005445 | 0.001642 | – |
| ARTKQpTAR(Me2a)K(Me3)STGGKAPRKQL-K(Biot)-NH2 [H3.1T6pR8me2aK9me3] | 0.008944 | – | 0.6906 | 0.006631 | – |
| Ac-APRKQLATKAARK(Ac)pSAPSTGG-Peg-K(Biot)-NH2 [H3.3K27acS28p] | 0.0002202 | – | 0.002338 | 0.0005992 | – |
| Ac-SGRGKGGK(Ac)GLGKGGAKRHRKVLR-Peg-Biot [Peptide H4K8ac] | – | 0.08696 | 0.001167 | – | 0.01217 |
| ARTKQTARKSTGGK(Ac)APRK(Ac)QL-K(Biot)-NH2 [H3.1K14acK18ac] | – | 0.1587 | – | – | 0.1741 |
| Ac-GK(Ac)GGAK(Ac)RHRKVLRDNIQ-Peg-Biot [H4K12acK16ac H4(11-27)] | 3.787e-5 | – | – | – | – |
| Ac-pSGRGK(Ac)QGGKARAKAKTR-Peg-Biot [Peptide H2AS1pK5ac] | – | 0.01536 | 0.009305 | – | – |
| Ac-IAQDFK(Me)TDLRF-Peg-K(Biot)-NH2 [Peptide H3.1K79me1] | – | 0.009736 | 0.002481 | – | – |
| ARTKQTARKpSTGGKAPRKQL-K(Biot)-NH2 [Peptide H3.1S10p] | – | 0.0218 | – | 0.004546 | 0.06974 |

| Substance | Avg Signal [1] | Avg Signal [2] | Avg Signal [3] | Avg Signal [4] | Avg Signal [5] |
| --- | --- | --- | --- | --- | --- |
| Ac-SGRGK(Ac)GGKGLGKGGAKRHRKVLR-Peg-Biot [Peptide H4K5ac] | – | 0.009315 | 0.04019 | – | 0.0009033 |
| ATKAARKSAPATGGVK(Me3)KPHRYRPG-GK(Biotin)-OH [H3.1K36me3 H3.1(21-44)] | 0.0006093 | – | – | – | – |
| Ac-APRKQLATKAARK(Me3)pSAPSTGG-Peg-Biot [H3.3K27me3S28p] | 0.1559 | – | 0.0007938 | 0.1105 | – |
| Ac-SGRGK(Ac)GGK(Ac)GLGK(Ac)GGAKRHRKVLR-Peg-Biot [H4K5acK8acK12ac] | – | 0.2078 | – | 0.002971 | – |
| KSAPSTGGVK(Me3)KPHRYRPGTV-K(biotin)-NH2 [H3.3K36me3 H3.3(27-46)] | 0.00263 | – | – | – | – |
| (Biot)Peg-MPKDIQLARRIRGERA-OH [H3.1.1(120-135)] | – | 0.05797 | 0.000221 | 0.0002349 | – |
| Ac-IAQDFKTDLRF-Peg-K(Biot)-NH2 [H3.1.1(74-84)N-ac] | – | 0.06248 | 0.005943 | – | – |
| ARTKQpTARKSTGGKAPRKQL-K(Biot)-NH2 [Peptide H3.1T6p] | – | 0.07045 | 0.0005946 | – | 0.0003583 |
| PRRRRRRGSSGAGGRGRTCS-Peg-Biot [Peptide H2A.B] | 0 | – | – | – | – |
| Ac-GK(Ac)GGAK(Ac)RHRK(Me2)VLRDNIQ-Peg-Biot [H4K12acK16acK20me2] | 0.0001487 | – | – | – | – |
| Ac-RRYQKSTELL-Peg-Biot [H3.1.1(52-61)] | 3.787e-5 | – | 0.0005198 | 0.0002743 | – |
| ARTK(Ac)QTARKSTGGK(Ac)APRKQL-K(Biot)-NH2 [H3.1K4acK14ac] | – | 0.2064 | 0.0007938 | – | 0.001132 |
| Ac-SGRGKGGK(Ac)GLGKGGAK(Ac)RHRKVLR-Peg-Biot [Peptide H4K8acK16ac] | – | 0.2331 | 0.003751 | – | 0.002102 |
| Ac-SGRGK(Ac)TGGKARAKAKSR-Peg-Biotin [Peptide H2A.XK5ac] | 0.0001351 | – | – | – | – |
| H3.1.1(15-34) H3.1(15-34): arrayed peptide ID 202 or 2551; same annotation and length | 0.0005485 | – | – | – | – |
| Ac-SGRGKGGKGLGK(Ac)GGAK(Ac)RHRKVLR-Peg-Biot [H4K12acK16ac H4(1-23)] | 3.927e-5 | – | – | – | – |
| ACitTK(Ac)QTARK(Ac)STGGK(Ac)APRK(Ac)QL-K(Biot)-NH2 [H3.1Cit2K4acK9acK14acK18ac] | – | 0.04568 | 0.003876 | – | – |
| ARpTK(Me3)QTARKSTGGKAPRKQL-K(Biot)-NH2 [Peptide H3.1T3pK4me3] | – | 0.0446 | 0.008533 | 9.707e-5 | – |
| Ac-SGRGKTGGKARAKAKSR-Peg-Biotin [H2A.X(1-17)] | 3.787e-5 | – | 0.0004918 | – | – |
| Ac-APRKQLATK(Ac)AARKSAPSTGG-Peg-Biot [Peptide H3.3K23ac] | 0.0001716 | – | 0.006441 | – | – |
| ARTKQpTARK(Ac)STGGK(Ac)APRK(Ac)QL-K(Biot)-NH2 [H3.1T6pK9acK14acK18ac] | – | 0.04664 | 0.002409 | 0.004763 | – |
| Ac-SGR(Me2a)GK(Ac)QGGKARAKAKTR-Peg-Biot [H2AR3me2aK5ac] | – | 0.03444 | 0.03211 | – | 0.0107 |
| ARTK(Me3)QTARKSTGGKAPRKQL-K(Biot)-NH2 [H3.1K4me3 H3.1(1-20)] | 0.001817 | – | – | – | – |
| ARTKQTARK(Ac)pSTGGKAPRKQL-K(Biot)-NH2 [Peptide H3.1K9acS10p] | – | 0.0481 | – | – | 0.1852 |
| Ac-GKGGAKRHRK(Me)VLRDNIQ-Peg-Biot [Peptide H4K20me1] | – | 0.5244 | 7.157e-5 | – | 0.003452 |
| ARTKQTARK(Ac)STGGKAPRKQL-K(Biot)-NH2 (not fully specified; K9 acetyl; K(Biot)-NH2) [Peptide H3.1K9ac] | – | 0.1022 | 0.0003455 | – | 0.168 |
